The results in this text go back to US20170368052A1, “CRYSTAL FORMS OF APOMORPHINE AND USES THEREOF” (NeuroDerm, Ltd., priority 2014, published 2017).

Format in all cases: physicochemical
Series [1] can be described thus: Equilibrium desiccator analysis at 75-80% RH. Particulars: 75 to 80% RH at 18-23° C., after 1 h.
The nature of series [2]: Process hold-point stability (purity profile). As for the experimental part: An optimized non-aqueous procedure is provided below and shown in Scheme 4. • 1. Add apomorphine hydrochloride (1.0 wt), ascorbic acid-6-palmitate (0.01 wt), IPA (30 vol) and stir at 18-23° C. • 2. Vacuum/nitrogen purge the vessel 3× at 18-23° C. and place under a flow of nitrogen. • 3. Heat the slurry to 60-65° C. • 4. Add 3-amino-1-propanol (1.1 eq, 0.25 vol) maintaining 60-70° C. (target 60-65° C.). • 5. As required, cool the reaction mixture to 60-65° C. […] Stir for 15-20 minutes and check for full dissolution. • 7. On full dissolution, clarify the reaction mixture through a ≦1 μm filter and line rinse with IPA (3 vol) at 60-65° C. (Note: the reaction solution is highly unstable to air while hot, therefore total exclusion of air is required.) • 8. Concentrate the reaction mixture under reduced pressure to approximately 10 vol maintaining 55-65° C. • 9. […] Cool the slurry to 68-71° C. and age for 1 h (crystallization is expected during the cool down period approximately 72° C.). • 11. Slow the stirring for the remainder of the preparation to the minimum effective rate and check for crystallization: if crystallization has not occurred, seed the reaction with 0.1 wt % of seeds and age for 1 h. • 12. Cool the slurry to 18-23° C. over 5-6 h at an approximately constant rate. • 13. Age the slurry at 18-23° C. for 2-16 h. • 14. […]

Series [3] can be described thus: Stability of the reaction mixture at reflux in IPA with/without ascorbic acid-6-palmitate (HPLC). The following applies: solution at reflux with ascorbic acid-6-palmitate. As for the experimental part: In this case, the base was added under reflux and the procedure compared with and without ascorbic acid-6-palmitate as an antioxidant (Table 7).

On to `CN1CCc2cccc3c2[C@H]1Cc1ccc(O)c(O)c1-3` [A0505-110-D1, apomorphine free base], for which the Weight increase in series [1] is 2.0 % w/w.
As for `CN1CCc2cccc3c2C1Cc1ccc(O)c(O)c1-3` (stereo not shown) [A0513-98-01], the “Change in purity profile” value in series [2] (reaction mixture held 2 h at reflux (83° C.)) is “no significant change”. Besides, in series [3], the “% area: RRT 1.00” value was 99.83 % area, the “% area: RRT 1.25” value turned out to be 0.04 % area, the “% area: RRT 1.71” value turned out to be 0.06 % area and the “% area: RRT 1.76” value amounted to 0.04 % area.
As for `CC(C)O.CN1CCc2cccc3c2C1Cc1ccc(O)c(O)c1-3` (stereo not shown) [A0513-126, apomorphine free base IPA solvate], the “Change in purity profile of the material isolated” value in series [2] (distillation over 6 h at 60-65° C.) is on record as “no significant change”.
